What was measured:
[1] = tested on: Canis familiaris; experiment: Cardiotoxicity in anesthetized dog assessed as effect on heart rate at 3 mg/kg, iv; format: toxicity, organism-based, Canis lupus familiaris; design: dose 3 mg/kg, route intravenous; settings: in vivo
[2] = tested on: Rattus norvegicus; experiment: Antiallodynic activity in rat spinal nerve ligation model of neuropathic pain assessed as reversal of allodynia at 3 mg/kg, po after 2 hrs; format: functional
[3] = Cmax in dog at 20 mg/kg, po; format: ADME, organism-based, Canis lupus familiaris; design: dose 20 mg/kg, route oral; settings: in vivo
[4] = tested on: Mus musculus; experiment: Neurotoxicity in conscious mouse assessed as effect on body temperature at 100 mg/kg after 24 hrs; format: toxicity, organism-based; design: dose 100 mg/kg; settings: in vivo
[5] = tested on: Mus musculus; experiment: Neurotoxicity in conscious mouse assessed as effect on CNS function at 100 mg/kg after 2 hrs; format: toxicity, organism-based, Central nervous system; design: dose 100 mg/kg; settings: in vivo
[6] = tested on: Rattus norvegicus; experiment: Antiallodynic activity in rat spinal nerve ligation model of neuropathic pain assessed as reversal of allodynia at 30 mg/kg, po after 4 hrs; format: functional
[7] = biological target: Sodium channel protein type 9 subunit alpha (Homo sapiens, UniProt Q15858); experiment: Inhibition of human Nav1.7 by VIPR assay
[8] = tested on: Mus musculus; experiment: Neurotoxicity in conscious mouse assessed as effect on CNS function at 100 mg/kg after 5 hrs; format: toxicity, organism-based, Central nervous system; design: dose 100 mg/kg; settings: in vivo
[9] = tested on: Mus musculus; experiment: Neurotoxicity in conscious mouse assessed as effect on behavior at 100 mg/kg after 2 hrs; format: toxicity, organism-based; design: dose 100 mg/kg; settings: in vivo
[10] = Plasma concentration in rat 30 to 100 mg/kg, po after 3.5 hrs; format: ADME, organism-based; design: dose 30-100 mg/kg, route oral
[11] = tested on: Plasma; experiment: Plasma concentration in dog at 3 mg/kg, iv; format: ADME, organism-based, Canis lupus familiaris; design: dose 3 mg/kg, route intravenous; settings: in vivo
[12] = Cmax in dog at 60 mg/kg, po; format: ADME, organism-based, Canis lupus familiaris; design: dose 60 mg/kg, route oral; settings: in vivo
[13] = AUC in dog at 60 mg/kg, po; format: ADME, organism-based, Canis lupus familiaris; design: dose 60 mg/kg, route oral; settings: plasma
[14] = biological target: hERG (KCNH2) (Homo sapiens, UniProt Q12809); experiment: Inhibition of MK-0499 binding to human ERG at 10 uM; settings: probe MK-0499
[15] = Metabolic stability in rat liver microsomes assessed as compound remaining after 60 mins in presence of 10 uM substrate; format: ADME, Microsome; settings: read-out: Stability
[16] = Cmax in rat at 1 mg/kg, iv and 3 mg/kg, po; format: ADME, organism-based; settings: in vivo
[17] = tested on: Canis familiaris; experiment: Cardiotoxicity in anesthetized dog assessed as effect on QTc interval at 1 mg/kg, iv; format: toxicity, organism-based, Canis lupus familiaris; design: dose 1 mg/kg, route intravenous; settings: in vivo
[18] = tested on: Rattus norvegicus; experiment: Neurotoxicity in rat assessed as delay in motor coordination at 100 mg/kg, po by rotarod test (reference value: 18%); format: toxicity, organism-based; design: dose 100 mg/kg, route oral; settings: in vivo
[19] = Bioavailability in dog at 0.5 mg/kg, iv and 2 mg/kg, po; format: ADME, organism-based, Canis lupus familiaris; settings: in vivo

Sodium channel protein type 9 subunit alpha, sequence (Q15858 whole entry): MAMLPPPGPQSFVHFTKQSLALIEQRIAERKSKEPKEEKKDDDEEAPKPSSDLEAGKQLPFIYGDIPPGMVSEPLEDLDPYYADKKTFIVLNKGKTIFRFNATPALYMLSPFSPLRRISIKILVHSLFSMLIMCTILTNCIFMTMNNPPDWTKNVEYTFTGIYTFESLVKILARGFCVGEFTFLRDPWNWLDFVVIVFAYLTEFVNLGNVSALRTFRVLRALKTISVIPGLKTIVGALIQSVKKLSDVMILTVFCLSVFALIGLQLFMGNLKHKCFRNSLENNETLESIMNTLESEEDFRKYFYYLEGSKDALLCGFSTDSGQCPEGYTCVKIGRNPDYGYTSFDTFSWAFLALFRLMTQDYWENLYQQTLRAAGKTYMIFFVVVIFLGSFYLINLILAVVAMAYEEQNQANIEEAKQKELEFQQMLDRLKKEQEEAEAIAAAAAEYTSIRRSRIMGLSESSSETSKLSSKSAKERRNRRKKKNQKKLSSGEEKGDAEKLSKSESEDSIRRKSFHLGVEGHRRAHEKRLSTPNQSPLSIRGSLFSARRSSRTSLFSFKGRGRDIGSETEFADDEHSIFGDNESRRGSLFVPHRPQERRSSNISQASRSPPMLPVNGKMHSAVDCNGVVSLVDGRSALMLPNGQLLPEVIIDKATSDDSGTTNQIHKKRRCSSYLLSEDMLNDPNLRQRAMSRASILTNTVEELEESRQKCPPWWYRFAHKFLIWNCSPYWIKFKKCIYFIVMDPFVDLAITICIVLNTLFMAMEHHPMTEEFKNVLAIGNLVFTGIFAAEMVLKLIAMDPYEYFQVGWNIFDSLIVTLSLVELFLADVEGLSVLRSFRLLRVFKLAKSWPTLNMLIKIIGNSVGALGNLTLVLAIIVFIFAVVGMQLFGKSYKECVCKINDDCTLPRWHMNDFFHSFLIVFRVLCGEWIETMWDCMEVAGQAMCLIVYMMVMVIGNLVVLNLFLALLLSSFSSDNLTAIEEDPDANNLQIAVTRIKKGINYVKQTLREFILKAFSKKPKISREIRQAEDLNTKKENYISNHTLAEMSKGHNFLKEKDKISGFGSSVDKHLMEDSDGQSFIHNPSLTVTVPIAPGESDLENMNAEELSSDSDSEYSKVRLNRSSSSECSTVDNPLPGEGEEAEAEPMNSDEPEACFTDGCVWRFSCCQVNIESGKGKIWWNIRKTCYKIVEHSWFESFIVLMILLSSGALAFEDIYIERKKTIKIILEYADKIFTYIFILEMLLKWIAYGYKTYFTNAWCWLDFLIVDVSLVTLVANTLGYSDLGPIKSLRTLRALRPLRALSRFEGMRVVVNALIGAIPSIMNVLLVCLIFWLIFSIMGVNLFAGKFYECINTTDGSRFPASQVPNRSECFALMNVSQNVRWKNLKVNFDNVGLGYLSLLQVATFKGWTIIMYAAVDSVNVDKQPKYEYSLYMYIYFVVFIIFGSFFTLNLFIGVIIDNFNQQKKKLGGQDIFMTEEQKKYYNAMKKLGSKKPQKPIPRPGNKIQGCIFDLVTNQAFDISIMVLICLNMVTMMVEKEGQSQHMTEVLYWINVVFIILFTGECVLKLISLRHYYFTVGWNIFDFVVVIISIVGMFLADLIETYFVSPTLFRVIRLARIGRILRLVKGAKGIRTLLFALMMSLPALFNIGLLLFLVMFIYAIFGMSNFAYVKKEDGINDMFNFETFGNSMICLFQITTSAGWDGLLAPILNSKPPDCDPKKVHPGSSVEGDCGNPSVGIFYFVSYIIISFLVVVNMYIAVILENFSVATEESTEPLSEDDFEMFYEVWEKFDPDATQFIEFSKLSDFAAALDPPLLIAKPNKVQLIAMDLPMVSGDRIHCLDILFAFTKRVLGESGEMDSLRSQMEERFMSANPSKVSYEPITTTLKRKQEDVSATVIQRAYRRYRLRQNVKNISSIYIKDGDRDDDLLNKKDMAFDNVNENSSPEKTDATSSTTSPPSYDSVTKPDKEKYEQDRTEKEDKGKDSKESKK
hERG (KCNH2), sequence (Q12809 whole entry): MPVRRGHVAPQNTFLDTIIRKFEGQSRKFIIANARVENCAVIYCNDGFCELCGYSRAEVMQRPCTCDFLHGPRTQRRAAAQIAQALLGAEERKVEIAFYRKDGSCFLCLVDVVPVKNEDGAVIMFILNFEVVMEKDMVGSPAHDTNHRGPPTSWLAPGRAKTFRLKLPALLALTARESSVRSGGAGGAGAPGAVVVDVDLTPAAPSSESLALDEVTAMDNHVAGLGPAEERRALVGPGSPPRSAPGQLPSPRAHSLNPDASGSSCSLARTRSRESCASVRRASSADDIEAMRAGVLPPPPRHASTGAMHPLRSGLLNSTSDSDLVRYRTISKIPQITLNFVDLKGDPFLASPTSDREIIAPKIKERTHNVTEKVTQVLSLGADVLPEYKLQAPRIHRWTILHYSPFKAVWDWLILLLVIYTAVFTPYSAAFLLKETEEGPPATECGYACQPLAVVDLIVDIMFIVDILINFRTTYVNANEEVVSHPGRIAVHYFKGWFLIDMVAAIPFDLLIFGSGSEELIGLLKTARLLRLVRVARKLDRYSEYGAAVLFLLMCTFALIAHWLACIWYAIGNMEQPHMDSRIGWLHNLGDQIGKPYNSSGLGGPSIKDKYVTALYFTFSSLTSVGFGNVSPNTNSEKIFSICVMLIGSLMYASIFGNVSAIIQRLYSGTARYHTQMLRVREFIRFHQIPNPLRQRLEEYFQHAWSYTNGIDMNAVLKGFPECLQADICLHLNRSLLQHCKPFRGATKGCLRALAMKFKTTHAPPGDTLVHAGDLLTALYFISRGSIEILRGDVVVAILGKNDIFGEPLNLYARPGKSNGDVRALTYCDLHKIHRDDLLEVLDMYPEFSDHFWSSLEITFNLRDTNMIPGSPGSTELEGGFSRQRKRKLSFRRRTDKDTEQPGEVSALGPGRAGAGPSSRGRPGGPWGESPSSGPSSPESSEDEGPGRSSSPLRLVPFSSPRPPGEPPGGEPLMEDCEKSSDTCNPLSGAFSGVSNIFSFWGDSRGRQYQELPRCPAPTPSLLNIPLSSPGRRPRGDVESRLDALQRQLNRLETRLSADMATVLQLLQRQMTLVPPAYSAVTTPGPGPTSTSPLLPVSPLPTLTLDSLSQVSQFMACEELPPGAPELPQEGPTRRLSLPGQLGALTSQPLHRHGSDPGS

SMILES: NC(=O)c1cc(C(N)=O)n(-c2cccc(-c3cc(C(F)(F)F)ccc3C(F)(F)F)c2)n1
- Activity [1]: Non-toxic
- inhibition in vivo at 3 mg/kg [2]: 18%
- Cmax [3]: 20.3 µM
- Activity [4]: Non-toxic
- Activity [5]: Non-toxic
- inhibition in vivo at 30 mg/kg [6]: 59%
- IC50 [7]: 810 nM
- Activity [8]: Non-toxic
- Activity [9]: Non-toxic
- concentration at 3.5 h [10]: 31.6 µM
- concentration [11]: 16.2 µM
- Cmax [12]: 24.4 µM
- AUC [13]: 650 µM·h
- inhibition at 10 µM [14]: 17%
- remaining at 1 h, 10 uM [15]: > 99%
- Cmax [16]: 2640 nM
- Activity [17]: Non-toxic
- Activity [18]: -11%
- bioavailability [19]: 33%

Source: ChEMBL document CHEMBL1629455, “Discovery of a novel class of biphenyl pyrazole sodium channel blockers for treatment of neuropathic pain” (Bioorg Med Chem Lett, 2010)
